“And” between values parts separate entries of the source, which are not always exact repeats. Identical values can stand only once.
Test system: LRF (luteinizing hormone releasing factor) induced luteinizing hormone (LH) release
Assay: LRF antagonist activity in vitro in rat anterior pituitary cell cultures
Type: cell-based
Settings: LRF alone 3.5×10^-10 Molar (LRF Control)
From the text: Octapeptides of this invention were screened for LRF antagonist activity in vitro using rat anterior pituitary cell cultures as described by Vale et. al. [Endocrinology, 91, 562 (1972)]. The inhibition of LRF (luteinizing hormone releasing factor) induced luteinizing hormone (LH) release into the culture medium is the endpoint in this in vitro bioassay.

In the case of “LRF Control: luteinizing hormone releasing factor, the stimulus whose LH release the octapeptides inhibit; also called luteinizing hormone releasing hormone (QHWSYGLRPG; Gonadoliberin-1; UniProt P01148 24-33, looked up)”, the “LH Value” is reported as 63.90 ng/mL and 64.13 ng/mL and 40.01 ng/mL.
